The results in this text go back to patent publication US6004967A, “Psoriasis treatment with quinazoline compounds” (priority 1997, dated 1999).

Like-named read-outs stand apart in the source and are kept apart here.

The target in data set [1] is T1, human EGF-R (Homo sapiens, UniProt P00533).
T1 construct: expressed in transfected cells; host or cells: NIH3T3 clone C7 (mouse fibroblasts)
As to the kind of experiment: EGF-R whole cell kinase assay (EGF-R-3T3 ELISA). It is filed as cell-based. To be noted: for IC50: whole cell, EGF-stimulated EGF-R phosphorylation, free base, read-out: EGFR Kinase IC50. The protocol: The activity of the above identified compounds in inhibiting EGF-stimulatedEGF-R phosphorylation was measured in an ELISA assay.
EGF-R kinase activity (EGF-R-3T3 assay) in whole cells was measured as described below:
Coated plates are good for up to 10 days when stored at 4° C.
On day of use, remove coating buffer and replace with blocking buffer (5% Carnation Instant NonFat Dry Milk in PBS). Incubate the plate, shaking, at room temperature (about 23° C. to 25° C.) for 30 minutes. Just prior to use, remove blocking buffer and wash plate 4 times with TBST buffer.
EGF-R/C7 cell line was used for this assay.
Choose dishes having 80-90% confluence for the experiment. Trypsinize cells and stop reaction by adding 10% CS DMEM medium. Suspend cells in DMEM medium (10% calf serum (CS) DMEM medium) and centrifuge once at 1000 rpm, and once at room temperature for 5 minutes.
Resuspend cells in seeding medium (DMEM, 0.5% bovine serum), and count the cells using trypan blue. Viability above 90% is acceptable. Seed cells in DMEM medium (0.5% bovine serum) at a density of 10,000 cells per well, 100 μl per well, in a 96 well microtiter plate. Incubate seeded cells in 5% CO2 at 37° C. for about 40 hours.
Check seeded cells for contamination using an inverted microscope. Dilute drug stock (10 mg/ml in DMSO) 1:10 in DMEM medium, then transfer 5 μl to a test well for a final drug dilution of 1:200 and a final DMSO concentration of 1%. Control wells receive DMSO alone. Incubate in 5% CO2 at 37° C. for one hour.
Control wells receive DMEM alone. Incubate and shake at room temperature for 5 minutes.
Remove drug, EGF, and DMEM. Wash cells twice with PBS. Transfer HNTG* to cells, 100 μl per well. Place on ice for 5 minutes. Meanwhile, remove blocking buffer from other ELISA plate and wash with TBST as described above.
With a pipette tip securely fitted to a micropipettor, scrape cells from plate and homogenize cell material by repeatedly aspirating and dispensing the HNTG* lysis buffer. Transfer lysate to a coated, blocked, and washed ELISA plate. Incubate and shake at room temperature for one hour.
Remove lysate and wash 4 times with TBST. Transfer freshly diluted anti-phosphotyrosine (anti-Ptyr) antibody to ELISA plate at 100 μl per well. Incubate shaking at room temperature for 30 minutes in the presence of the anti-Ptyr antiserum (1:3000 dilution in TBST).
Remove the anti-Ptyr antibody and wash 4 times with TBST. Transfer the freshly diluted TAGO 30 anti-rabbit IgG antibody (anti-rabbit IgG antibody: 1:3000 dilution in TBST) to the ELISA plate at 100 μl per well. Incubate shaking at room temperature for 30 minutes.
Remove detection antibody and wash 4 times with TBST. Transfer freshly prepared ABTS/H2 O2 solution to ELISA plate, 100 μl per well. Incubate at room temperature for 20 minutes. ABTS/H2 O2 solution: 1.2 μl 30% H2 O2 in 10 ml ABTS stock.
Stop reaction by adding 50 μl 5N H2 SO4 (optional), and determine O.D. at 410 nm.
The maximal phosphotyrosine signal is determined by subtracting the value of the negative controls from the positive controls. The percent inhibition of phosphotyrosine content for extract-containing wells is then calculated after subtraction of the negative controls.
On the technique in general: An ELISA detects its analyte on a solid surface through an enzyme-linked reagent.

In data set [2] the test system is NIH 3T3 C7 cells engineered to express EGF-R (3T3-EGFR). The experiment in a line: 3T3 cell growth assay, EGF-R C7 cells (3T3-EGFR). It is filed as cell-based. To be noted: Mus musculus, NIH3T3, 96 h, read-out: 3T3-EGFR IC50. On the procedure:
The efficacy of the above identified compounds in inhibiting or reducing EGF-R stimulated proliferation is measured by the 3T3 cell growth assay. The 3T3 growth assay was carried out as follows:
EGF-RC7 (NIH 3T3 C7 cells engineered to express EGF-R) and NIH 3T3C7 cells (as the control) were used for this assay. NIH3T3C7 cells were seeded at 2500 cells/well, […] in 10% CS+2 mM Glutamine/DMEM, in a 96 well plate; EGF-RC7 cells were seeded at 6000 cells/well, 100 μl/well in 2% FBS+2 mM Glutamine/DMEM, in a 96 well plate. Cells were incubated at 37° C., 5% CO2 overnight to allow for cell attachment to the plate.
A quinazoline compound was added to the cells at day 2. The compound was prepared in the appropriate growth medium (10% CS+2 mM glutamine in DMEM for NIH3T3C7 cells; 2% FBS+2 mM Glutamine in DMEM for EGF-RC7 cells) in a 96 well plate, and serially diluted. A total of 100 μl/well medium of the diluted compounds was added into the cells. The total volume of each well was 200 μl.
After the cells were treated with the compound for 4 days, the cells were washed with PBS and fixed with 200 μl/well ice-cold […] for one hour at 0-5° C.
Remove TCA and rinse wells 5 times with deionized water. Dry plates upside down with paper towels. Stain cells with 0.4% SRB at 100 μl/well for 10 minutes.
Pour off SRB and rinse plate 5 times with 1% acetic acid. Dry plate completely.
Solubilize the dye with 10 mM Tris-base at 100 μl/well for 10 minutes on a shaker.
Read the plate at dual wavelengths at 570 nm and 630 nm on Dynatech Elisa plate reader.

Data set [3] relates to 3T3-PDGFR. As to the kind of experiment: cell growth assay, PDGFR expressing cells (3T3-PDGFR), selectivity. To be noted: for IC50: 96 h, read-out: 3T3-PDGFR IC50; for PDGFR/EGFR IC50/IC50: ratio 3T3-PDGFR / 3T3-EGFR, 5760 min. It is filed as cell-based.
The nature of data set [4]: in vivo. To be noted: single dose, IP, BALB/c female mice; for LD50 at 168 h: mouse, in vivo; for LD50 at 168 h / LD10: 7 days; for deaths: at the dose for LD10/LD50.
Data set [5] can be described thus: Plasma concentration after single IP dose. In kind it is in vivo. To be noted: mouse, plasma, single dose 50 mg/kg IP, BALB/c nu/nu female mice; for concentration at […]: 15 min; for concentration at 1 h: 60 min. On the procedure:
**Single dose (50 mg/kg), IP, in BALB/c, nu/nu, female mice.

The subject of data set [6] is psoriatic human keratinocytes. As to the kind of experiment: Growth of psoriatic human keratinocytes. In kind it is cell-based. The source says:
Cells and Cell Culture. All tumor cell lines were obtained from the American Type Culture Collection (Rockville, Md.), unless otherwise specified. NIH3T3 mouse fibroblasts overexpressing the EGF receptor, IGF-1 receptor, insulin receptor, PDGF-b receptor, or a chimera of the EGF receptor extracellular domain fused to the Her-2 cytoplasmic domain were engineered using retroviral vectors. These cells will be referred to as 3T3-EGFR, 3T3-IGF1R, 3T3-IR, 3T3-PDGF-bR, and 3T3-EGFR/Her-2, respectively. All cell culture media and supplements were purchased from Gibco Life Technologies (Grand Island, N.Y.) unless otherwise specified. […] Cell lines were maintained under standard conditions in culture media recommended by the ATCC, unless otherwise specified. 3T3-EGFR, 3T3-PDGF-bR, and 3T3-EGFR/Her-2 cells were maintained in DMEM containing 10% calf serum (CS) and 2 mM GLN. 3T3-IGF1R and 3T3-IR cells were maintained in DMEM containing 10% FBS and 2 mM GLN. Keratinocytes were obtained from small biopsy specimens of split-thicknessskin from patients with psoriasis and from healthy control donors.
In vitro functional studies. […] Cell lines examined in receptor phosphorylation ELISA were 3T3-EGFR, 3T3-EGFR/Her-2, 3T3-PDGF-bR, 3T3-IGF1R, and 3T3-IR. For analysis of DNA replication (measured as incorporation of BrdU) and cell cycle progression, 3T3-EGFR and 3T3-PDGF-bR cell lines were used. Cell growth studies were carried out on A431 (EGF-R+), BT474 (Her-2+), and C6 (PDGF-bR+) cell lines.

T1 sequence (P00533 25-1210): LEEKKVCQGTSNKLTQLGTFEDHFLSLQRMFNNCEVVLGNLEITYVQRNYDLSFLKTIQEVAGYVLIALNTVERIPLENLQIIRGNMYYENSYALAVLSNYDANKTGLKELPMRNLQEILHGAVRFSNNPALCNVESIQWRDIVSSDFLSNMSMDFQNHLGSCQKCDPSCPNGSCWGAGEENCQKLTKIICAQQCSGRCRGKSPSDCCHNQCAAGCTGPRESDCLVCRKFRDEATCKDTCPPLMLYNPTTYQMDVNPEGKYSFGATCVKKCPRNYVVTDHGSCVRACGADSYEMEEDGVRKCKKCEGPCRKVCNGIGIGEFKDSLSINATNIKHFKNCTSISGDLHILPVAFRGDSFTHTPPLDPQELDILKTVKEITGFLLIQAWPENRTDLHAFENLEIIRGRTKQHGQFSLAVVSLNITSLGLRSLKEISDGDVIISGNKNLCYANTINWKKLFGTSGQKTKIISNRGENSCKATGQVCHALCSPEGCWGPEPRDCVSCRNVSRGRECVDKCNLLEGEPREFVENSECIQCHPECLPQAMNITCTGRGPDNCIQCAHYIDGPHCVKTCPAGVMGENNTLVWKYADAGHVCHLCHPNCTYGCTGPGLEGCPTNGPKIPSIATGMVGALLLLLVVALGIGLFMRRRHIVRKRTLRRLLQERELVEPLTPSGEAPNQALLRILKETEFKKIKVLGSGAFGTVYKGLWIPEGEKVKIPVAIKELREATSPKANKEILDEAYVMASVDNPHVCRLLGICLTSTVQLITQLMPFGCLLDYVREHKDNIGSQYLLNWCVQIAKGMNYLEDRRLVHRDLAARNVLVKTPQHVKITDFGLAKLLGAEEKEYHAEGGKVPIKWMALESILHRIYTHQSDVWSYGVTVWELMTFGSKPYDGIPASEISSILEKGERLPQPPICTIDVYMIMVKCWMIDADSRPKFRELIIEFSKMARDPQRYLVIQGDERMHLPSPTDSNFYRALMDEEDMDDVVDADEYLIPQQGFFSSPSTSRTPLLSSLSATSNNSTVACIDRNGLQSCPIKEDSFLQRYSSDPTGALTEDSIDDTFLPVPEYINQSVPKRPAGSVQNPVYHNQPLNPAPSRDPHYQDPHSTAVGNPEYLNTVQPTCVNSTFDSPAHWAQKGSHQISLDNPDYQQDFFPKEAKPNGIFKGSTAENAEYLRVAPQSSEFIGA

What is called IC50 is the concentration at which inhibition is half-maximal. What is called LD50 is the dose at which mortality reaches 50%. `COc1cc2ncnc(Nc3cccc(Cl)c3)c2cc1OC` [A2, 4-(3-Chlorophenylamino)-6,7-dimethoxyquinazoline]: the “inhibition of EGF-stimulated EGF-R phosphorylation (in words)” value in data set [1] is reported as “able to inhibit”. The IC50 in data set [2] is 110 nM. Further, the IC50 in data set [3] is 18000 nM. In data set [4], the LD50 at 168 h was > 200 mg/kg, the LD10 is recorded as > 200 mg/kg and the deaths entry is listed as “no”. In data set [5], this compound displayed a concentration at 5 min of 11500 ± 4000 ng/mL, a concentration at […] of 6500 ± 1300 ng/mL and a concentration at 1 h of 3700 ± 500 ng/mL. Also, the “inhibition of psoriatic skin cell / keratinocyte proliferation in vitro (in words)” value in data set [6] is reported as “capable of inhibiting”.
Regarding `Cc1ccc2ncnc(Nc3cccc(Cl)c3)c2c1` [A3, 4-(3-Chlorophenylamino)-6-methylquinazoline], in data set [1], the “inhibition of EGF-stimulated EGF-R phosphorylation (in words)” value is given as “able to inhibit” and the IC50 is 58 nM. For the same compound, in data set [2] (cell growth, 4 days, free base), the IC50 stood at 2000 nM. The 50% inhibitory concentration (IC50) in data set [3] (cell growth, 4 days, free base) came to 10000 nM. Further, the “PDGFR/EGFR IC50/IC50” value in data set [3] came out at 5. Further, in data set [4], the 50% lethal dose (LD50) at 168 h was > 400 mg/kg. In data set [5], this compound had a concentration at 5 min of 7870 ± 980 ng/mL, a concentration at […] of 3430 ± 820 ng/mL and a concentration at 1 h of 1340 ± 110 ng/mL. In addition, the “inhibition of psoriatic skin cell / keratinocyte proliferation in vitro (in words)” value in data set [6] is “capable of inhibiting”.
With `COc1cc2ncnc(Nc3cccc(C(F)(F)F)c3)c2cc1OC` [A4, 4-[3-(trifluoromethyl)phenylamino]-6,7-dimethoxyquinazoline], in data set [1], the “inhibition of EGF-stimulated EGF-R phosphorylation (in words)” value was “able to inhibit” and the IC50 is < 6 nM. Also, in data set [2] (cell growth, 4 days, free base), the 50% inhibitory concentration (IC50) was 400 nM. Besides, the IC50 in data set [3] (cell growth, 4 days, free base) was found to be 28000 nM. In data set [3], the “PDGFR/EGFR IC50/IC50” value stood at 70. The compound also returned an LD40 in data set [4] (printed in LD10 and LD50 columns) of 400 mg/kg. In data set [5], this compound registered a concentration at 5 min of 13300 ± 1500 ng/mL, a concentration at […] of 12700 ± 3000 ng/mL and a concentration at 1 h of 3900 ng/mL. Also, the “inhibition of psoriatic skin cell / keratinocyte proliferation in vitro (in words)” value in data set [6] is “capable of inhibiting”.
With `COc1cc2ncnc(Nc3cccc(C#N)c3)c2cc1OC` [A5, 4-(3-Cyanophenylamino)-6,7-dimethoxyquinazoline], in data set [1], the “inhibition of EGF-stimulated EGF-R phosphorylation (in words)” value is on record as “able to inhibit” and the IC50 worked out at 200 nM. Besides, in data set [2] (cell growth, 4 days, free base), the IC50 was determined as 1500 nM. Further, in data set [3] (cell growth, 4 days, free base), the IC50 is > 100000 nM. Also, the “PDGFR/EGFR IC50/IC50” value in data set [3] came out at 67. Further, in data set [4], the LD50 at 168 h was > 153 mg/kg, the LD10 was > 153 mg/kg and the deaths entry was “no”. In data set [5], this compound showed a concentration at 5 min of 950 ± 420 ng/mL, a concentration at […] of 650 ± 190 ng/mL and a concentration at 1 h of 130 ± 60 ng/mL. Also, the “inhibition of psoriatic skin cell / keratinocyte proliferation in vitro (in words)” value in data set [6] is listed as “capable of inhibiting”.
Consider `Cc1ccc2ncnc(Nc3cccc(C(F)(F)F)c3)c2c1` [A6, 4-[3-(trifluoromethyl)phenylamino]-6-methylquinazoline], for which, in data set [1], the “inhibition of EGF-stimulated EGF-R phosphorylation (in words)” value is “able to inhibit” and the half-maximal inhibitory concentration (IC50) is 900 nM. The half-maximal inhibitory concentration (IC50) in data set [2] (cell growth, 4 days, free base) came to 6000 nM. The IC50 in data set [3] (cell growth, 4 days, free base) amounted to 30000 nM. In addition, the “PDGFR/EGFR IC50/IC50” value in data set [3] was 5. Also, in data set [4], the LD50 at 168 h is > 400 mg/kg, the LD10 is recorded as > 400 mg/kg and the deaths result is reported as “no”. Moreover, in data set [5], the concentration at 5 min amounted to 4450 ± 1380 ng/mL, the concentration at […] turned out to be 2010 ± 530 ng/mL and the concentration at 1 h amounted to 540 ± 200 ng/mL. In addition, the “inhibition of psoriatic skin cell / keratinocyte proliferation in vitro (in words)” value in data set [6] was “capable of inhibiting”.
